Drawing on US20250136597A1, “COMPOUNDS AND COMPOSITIONS FOR TREATING CONDITIONS ASSOCIATED WITH STING ACTIVITY” (IFM Due, Inc., priority 2020, published 2025), this text covers EC50 for four compounds.

SMILES strings stand for the structures.

In the assay the target is T1, hSTING (Homo sapiens, UniProt Q86WV6, G230A/H232R/R293Q/R71H).
T1 construct: host or cells: THP1-Dual KO-IFNAR2 cells
T1 sequence (Q86WV6 whole entry R71H/G230A/H232R/R293Q): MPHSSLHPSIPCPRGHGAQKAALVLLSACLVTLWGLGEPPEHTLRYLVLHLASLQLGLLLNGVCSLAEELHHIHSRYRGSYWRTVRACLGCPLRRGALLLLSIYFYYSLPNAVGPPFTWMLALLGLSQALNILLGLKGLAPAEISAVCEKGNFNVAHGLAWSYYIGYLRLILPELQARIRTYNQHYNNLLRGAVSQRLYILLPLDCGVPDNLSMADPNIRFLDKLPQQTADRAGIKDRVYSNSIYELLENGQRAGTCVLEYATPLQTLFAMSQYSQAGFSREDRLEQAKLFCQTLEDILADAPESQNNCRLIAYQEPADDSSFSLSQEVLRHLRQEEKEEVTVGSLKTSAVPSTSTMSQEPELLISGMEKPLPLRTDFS
The experiment in a line: STING reporter assay in THP1-Dual KO-IFNAR2 cells (2′3′cGAMP stimulation, luciferase reporter). It is filed as cell-based. As to conditions: final 2′3′cGAMP 15 μM, 24 h, luciferase reporter activity. As for the experimental part:
STING pathway activation by the compounds described herein was measured using THP1-Dual™ cells (KO-IFNAR2).
THP1-Dual™ KO-IFNAR2 Cells (obtained from invivogen) were maintained in RPMI, 10% FCS, 5 ml P/S, 2 mM L-glut, 10 mM Hepes, and 1 mM sodium pyruvate. Compounds were spotted in empty 384 well tissue culture plates (Greiner 781182) by Echo for a final concentration of 0.0017-100 μM. Cells were plated into the TC plates at 40 μL per well, 2×10E6 cells/mL. For activation with STING ligand, 2′3′cGAMP (MW 718.38, obtained from Invivogen), was prepared in Optimem media.
The following solutions were prepared for each 1×384 plate: • Solution A: 2 mL Optimem with one of the following stimuli: • 60 μL of 10 mM 2′3′cGAMP→150 μM stock • Solution B: 2 mL Optimem with 60 μL Lipofectamine 2000→Incubate 5 min at RT
2 mL of solution A and 2 ml Solution B was mixed and incubated for 20 min at room temperature (RT). 20 μL of transfection solution (A+B) was added on top of the plated cells, with a final 2′3′cGAMP concentration of 15 μM. The plates were then centrifuged immediately at 340 g for 1 minute, after which they were incubated at 37° C., 5% CO2, >98% humidity for 24 h. Luciferase reporter activity was then measured. EC50 values were calculated by using standard methods known in the art.
Luciferase reporter assay: 10 μL of supernatant from the assay was transferred to white 384-plate with flat bottom and squared wells. One pouch of QUANTI-Luc™ Plus was dissolved in 25 mL of water. 100 μL of QLC Stabilizer per 25 mL of QUANTI-Luc™ Plus solution was added. 50 μL of QUANTI-Luc™ Plus/QLC solution per well was then added. Luminescence was measured on a Platereader (e.g., Spectramax I3X (Molecular Devices GF3637001)).
Luciferase reporter activity was then measured. EC50 values were calculated by using standard methods known in the art.
What is called EC50 is the concentration needed to bring the measured effect to its halfway point. Read a low EC50 as higher potency in that assay. For the compound `CCc1ccc(-n2cc(-c3ccc4[nH]cc(NS(=O)(=O)CC5CCCO5)c4c3)cn2)cc1` (stereo not shown) [Compound 101, N-(5-(1-(4-ethylphenyl)-1H-pyrazol-4-yl)-1H-indol-3-yl)-1-(tetrahydrofuran-2-yl)methanesulfonamide], the EC50 fell in the range of 0.2 to 1 µM.
The same measure for `CCc1ccc(-n2cc(-c3ccc4[nH]cc(NS(=O)(=O)CC5CC5)c4c3)cn2)cc1` [Compound 102, 1-cyclopropyl-N-(5-(1-(4-ethylphenyl)-1H-pyrazol-4-yl)-1H-indol-3-yl)methanesulfonamide]: 0.2 to 1 µM; for `CCc1ccc(-n2cc(-c3ccc4[nH]cc(NS(=O)(=O)C5CCC5)c4c3)cn2)cc1` [Compound 103, N-(5-(1-(4-ethylphenyl)-1H-pyrazol-4-yl)-1H-indol-3 yl)cyclobutanesulfonamide]: 0.2 to 1 µM; for `CCc1ccc(-n2cc(-c3ccc4[nH]cc(NS(=O)(=O)CC)c4c3)cn2)cc1` [Compound 104, N-(5-(1-(4-ethylphenyl)-1H-pyrazol-4-yl)-1H-indol-3-yl)ethanesulfonamide]: 1 to 5 µM.
